Test results published in patent US12667568B2, “Compositions and methods for the treatment and diagnosis of cancer” (The General Hospital Corporation, priority 2020, dated 2026).

Legend:
[1] = test system: ZR-75-30, MCF7, HCC-1954, HCC-1937, MDA-MB-468 and MDA-MB-231; test: Colony formation assay with Olaparib in six breast cancer cell lines; format: cell-based
Procedure: FIGS. 10A-10E show SYCP2 promotes RAD51 localization to DSBs independently of BRCA1. (FIG. 10A) The schematic mechanism of HR in the absence of BRCA1/2 for RAD51 loading with the help of SYCP2. RAD51 IRIF in BRCA1 mutant breast cancer cell lines after 2 Gy IR and 1 hour recovery with or without siSYCP2. Numbers of RAD51 foci per cell in siCtrl and siSYCP2 were quantified (n=20). The frameshift mutation of BRCA1 in cell line HCC1954 and HCC1937 is listed in the right. (FIG. 10B) The frequency of BRCA1 and SYCP2 IRIF colocalizing with γ-H2AX in U2OS cells after 2 Gy IR and recovery of 1 hour. Western blot of BRCA1 and SYCP2 knockdown and RAD51 expression level was shown in the left. (FIG. 10C) Comparison of SYCP2 RNA expression (CCLE database) in BRCA1/2 mutant and wildtype breast cancer cell lines. The analysis is normalized to Fragments Per Kilobase Million (FPKM). (FIG. 10D) Plot of correlation between SYCP2 expression and IC50 of Olaparib in groups of BRCA WT vs. mutant cells (left), high BRCA1 vs. low BRCA1 (right). p values and r values were determined by using Pearson correlated analysis. […]
Approximately 400 cells were replanted on 6-cm dishes 48 h after siRNA transfection. […] Colonies were stained with 0.3% crystal violet/methanol and counted 9 days after treatments. Each experiment was performed at least 3 times and the standard errors were calculated and indicated in the graphs. […]

[2] = test system: MD-MBA-231 xenograft tumors; test: MD-MBA-231 xenograft with PARPi; format: in vivo, BALB/c nude mice
Procedure: FIGS. 9A-9G show SYCP2 is required for efficient homologous recombination. (FIG. 9A) Cell survival rate of HeLa and MDAMB231 via colony forming assay with the treatment of […], 4 μm, 6 μM, 8 μM, 16 μM of Olaparib (n=3, mean+/−S.D.). Western blot of SYCP2 overexpression in HeLa and MDA-MB-231 is shown in the left. (FIG. 9B) Cell survival rate of HeLa via colony forming assay with the treatment of 1 μM, 2 μm, 3 μM of Olaparib (n=3, mean+/−S.D.). Western blot of SYCP2 knockdown in Hela is shown in the left. (FIG. 9C) Scheme of Xenograft design using intraperitoneal injection of MBA-MD-231 into successful developed mouse model with virus-associated SYCP2 knockdown and control groups is shown in the left. PARPi was injected every 2 days after day 7. The graph is shown the recorded tumor size of each tested group with PARPi treatment or saline at each treatment day. (FIG. 9D). Numbers of SYCP2 IR induced foci (IRIF) colocalizing with γH2AX in MDAMB231 and HeLa cells. Cells were fixed and counted for foci numbers after 2 Gy IR followed up indicated recovery time (t=0 hr, 12 hr, 24 hr, and 48 hr) (n=30, mean+/−S.D). (FIG. 9E). […] Fold increase of mean intensity at sites of irradiation compared to mean intensity of nucleus expression is quantified (n=5, mean+/−SD). […] Numbers of RAD51 IRIF in siCtrl and siSYCP2 treated MDAMB231 and U2OS cells after 2 Gy IR and 1 hour recovery were counted (n=20, +/SD). […]

[3] = test system: HST578, MBAMD231, HCC1937, HCC1954 cancer cells; test: Cell survival assay, TRDMT1i alone (Example 19); format: cell-based; conditions: HCC1954, HRD, high SYCP2
Procedure: FIGS. 14A-14C show TRDMT1i alone reduce cancer cell survival in a dose-dependent manner. (FIG. 14A) Survival rate of HR proficient (HR+) HST578 cancer cells with and without siBRCA1 and/or TRDMT1i YW-1842 at indicated dose. The survival rate of these cells was analyzed (n=3, Mean±SD). (FIG. 14B) Survival rate of MBAMD231 (HR+) and HCC1937 (HRD) cells. The survival rate of these cells was analyzed (n=3, Mean±SD). (FIG. 14C) Cell survival rate in different cancer cell lines via colony-forming assay with the treatment of Imatinib at indicated dose (n=3, mean+/−S.D.). Cell lines are listed in order with the expression level from SYCP2high to SYCP2low.
Cells were seeded in each 6-cm dish and cultured as described above. They were treated with drugs with indicated dose in medium after seeding. After 7-10 days, colonies were fixed and stained with 0.3% crystal violet in methanol, and the number of colonies was counted manually.

[4] = test system: SKOV3 subcutaneous xenograft tumors; test: SKOV3 xenograft with Cisplatin; format: in vivo, BALB/c nude mice; conditions: Cisplatin 5 mg/kg into tumor twice per week for 3 weeks, Lv-shTRDMT1 versus Lv-NC
Procedure: FIGS. 5A-5E show reduced TRDMT1 expression renders Cisplatin sensitization in vivo. (FIG. 5A) Lv-shTRDMT1 or Lv-NC transfected SKOV3 cells were subcutaneously injected into BALB/c nude mice, a week after injection, Cisplatin (5 mg/kg) or saline was injected into the center of the xenograft tumors twice per week for 3 consecutive weeks. (FIG. 5B) Representative images of tumors in xenografts transfected with LV-shTRDMT1/LV-NC with saline or Cisplatin treatment. (FIG. 5C) Tumor size of SKOV3 subcutaneous xenograft tumors (n=6, Mean±SD). (FIG. 5D) WB for TRDMT1 in tumor tissues collected from mice in each group (Tissues from six tumors in the same group were mixed into one sample). (FIG. 5E) IHC of TRDMT1 and KI-67 expression in ovarian cancer tissues of patients who were platinum-sensitive (PFS>6) and —resistant (PFS<6) Staining was assessed and scored on a scale of 0 (<5% staining) to 4 (>75% staining) in G. Quantification of IHC staining (n=38, PFS>6, n=24; PFS<6, n=14) was shown. […]
When mice developed palpable tumors (about a week after injection), cDDP (5 mg/kg) or saline were then injected into the center of the xenograft tumors twice per week for 3 consecutive weeks. […] PFS was calculated from the time of surgery to the time of progression or recurrence. […]

breast tumors = test: Sacituzumab Govitecan (IMMU-132) clinical trial, outcome by SYCP2 IHC; format: in vivo; conditions: 16 patients
Description: FIGS. 13A-13D show high SYCP2 expression associates with poor prognosis and drug resistance in patients. (FIG. 13A). Summarization of subtypes of breast cancer patients in a Sacituzumab Govitecan (IMMU-132) clinical trial group. Patients were divided to high SYCP2 group and low SYCP2 group by IHC of SYCP2. IHC staining of SYCP2 expression in patient tumor tissues from the IMMU-132 clinical trial group. Representative images were shown. Cutoff value is median. Numbers of patients' response as Partial Response (PR) or Stable Disease (SD) in low SYCP2 group and high SYCP2 group in IMMU clinical trial are shown. (FIG. 13B) Kaplan-Meier curves of patients' overall survival and progression free survival in FIG. 13A. (FIG. 13C) Overall survival curves of 1095 patients from TCGA. Cutoff value is median. R value and p value were calculated by COX survival analysis. […]
The collected tumor specimens and adjacent normal tissue samples were fixed in 4% parafoiinaldehyde, stored in PBS. After sucrose infiltration, samples were filled with OTC and ready for cryosection. […] After deparaffinization and rehydration, sections were blocked and incubated with antibody against SYCP2 (PAS-67554, 1:20), Ki-67 (sc-23900, Santa Cruz, 1:200), and then detected using the Dako Envision two-step method of immunohistochemistry (Carpinteria, CA, USA). […] All IHC staining was scored independently by 2 pathologists. […]

Molecule: O=C(c1cc(Cc2n[nH]c(=O)c3ccccc23)ccc1F)N1CCN(C(=O)C2CC2)CC1 [Olaparib]
- PARPi sensitivity, BRCA1 mutant versus non-mutant ([1]; among four cell lines expressing high levels of SYCP2): more sensitive
- PARPi sensitivity, low versus high SYCP2 ([1]; among four cell lines without BRCA mutations): much more sensitive
- tumor growth, control tumors ([2]; siControl tumors, intraperitoneal, every 2 days after day 7, 23 days): reduced the growth of control tumors
- tumor growth, SYCP2 knockout tumors ([2]; siSYCP2 tumors versus control tumors): reduced the growth of SYCP2 knockout tumors more than control tumors
- response of HCC1954 to PARPi [3]: relatively resistant

Molecule: N.N.[Cl][Pt][Cl] [cisplatin]
- xenograft tumor size, Lv-shTRDMT1 tumors [4]: grew statistically smaller

Molecule: Sacituzumab Govitecan
- response rate in patients with SYCP2high tumors (breast tumors; SYCP2high versus SYCP2low by IHC): reduced rate of partial response (PR) but an increased rate of stable disease (SD)
- survival in patients with high SYCP2 expression (breast tumors; high SYCP2 expression): shorter overall survival and progression-free survival
